Reference: PubChem BioAssay AID2060892 (Molecular Pharmacology Branch, DTP, NCI, 2025)

Tested on: HOP-62 complex spheroids with HUVEC/MSC, viability
Experiment: Anticancer human tumor HOP-62 cell line growth inhibition [RAS];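 note: spheroids exposed to agents for seven days before readout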
Settings: for IC50: curve of first compound; for viability, T/C: stronger effect = lower value; active = viability on the fitted dose curve at most 10% of control; inactive = the rest
Excerpt: RAS pathway inhibitors in Combinations in Complex Spheroids
A high-throughput screen of multi-cell type tumor spheroids was designed to identify active combinations of RAS pathway inhibitors and targeted small molecules. Complex spheroids include a stromal component modeled by human endothelial cells (HUVEC) and fibroblasts modeled by human mesenchymal stem cells (MSCs). The concentration ranges selected for each drug and investigational agent were based upon clinically achievable concentrations if the clinical Cmax of the agent was known.
Compounds. The drugs and investigational agents: abemaciclib (NSC768073), cobimetinib (NSC768068), divarasib (GDC6063, NSC841802), docetaxel (NSC628503), GDC-1971 (RLY-1971, NSC841576), gemcitabine (NSC613327), inavolisib (NSC800729), ipatasertib (NSC767898), KB-0742 (NSC834161), MRTX-1133 (NSC836407), osimertinib (NSC779217), RMC-4630 (NSC839698), RMC-6236 (NSC851965), RMC-6291 (NSC852671), Ro-3306 (NSC812927), sapanisertib (NSC764658), SN-38 (NSC673596), staurosporine (NSC755774), SY5609 (NSC837396), and tovorafenib (DAY101, NSC766906), were obtained from the National Cancer Institute (NCI) Developmental Therapeutics Program Chemical Repository. The FDA-approved anticancer drug set is available from the NCI Developmental Therapeutics Program. […] The stock solutions were prepared in dimethyl sulfoxide (DMSO, Sigma-Aldrich, St. Louis, MO, cat. D2650) at 800-fold the tested concentration and stored at -70 degrees C prior to their use. All drugs and investigational agents were tested over a range starting from a high concentration at or near the clinical Cmax and decreasing in half-log increments. If the clinical Cmax for an agent had not been determined, the highest concentration tested was 10 microM.
Cell Culture. All cells were maintained in an incubator at 37 degrees C and 5% CO2 with 95% humidity. The PDC lines were cultured according to standard operating procedures established by the NCI PDMR. All PDCs were thawed and cultured in Matrigel-coated flasks prepared with a working solution of 1X Ham's F-12 nutrient mix, without supplementation (Invitrogen, Waltham, MA, cat. 11765054), 100 U/mL penicillin-streptomycin (Invitrogen, cat. 15140122), and 2.5% Matrigel (Corning Inc., Corning, NY, cat. 354248) for the first three passages. The 362531-283-R-J2-PDC and 782815-120-R-J1-PDC lines were cultured in 6C/Colon 1B media, which includes advanced DMEM/F-12 (Thermo Fisher Scientific, cat. 12634028), 10 mM HEPES (Thermo Fisher Scientific, cat. 15630080), 1X GlutaMAX supplement (Thermo Fisher Scientific, cat. 35050061), 0.1 mg/mL primocin (InvivoGen, San Diego, CA, cat. ant-pm-2), 10% defined fetal bovine serum, heat inactivated (HyClone Laboratories Inc., Logan, UT, cat. SH30070.03HI), 50% L-WRN conditioned media (ATCC, cat. CRL-3276), 1.25 mM N-Acetyl-L-cysteine (Sigma-Aldrich, cat. A9165), 10 mM nicotinamide (Sigma-Aldrich, cat. N0636), 1X B-27 supplement (Thermo Fisher Scientific, cat. 17504044), 1X N-2 supplement (Thermo Fisher Scientific, cat. 17502048), 50 ng/mL human EGF (Thermo Fisher Scientific, cat. PHG0311), and 10 microM Y-27632 dihydrochloride (Tocris Bioscience, cat. 1254). The K12877-001-R-J1-PDC line was cultured in 6I media, which includes all 6C/Colon 1B media plus 10 ng/mL human FGF-10 (PeproTech, cat. 100-26), 1 ng/mL human FGF-2 (PeproTech, cat. 100-18B), 1 µM prostaglandin E2 (Tocris Bioscience, cat. 2296), […] hydrocortisone (Sigma-Aldrich, cat. H4001), and […] bovine insulin (Sigma-Aldrich, cat. I6634). The K86415-001-R-J1-PDC line was cultured in 6D media, which includes all 6C/Colon 1B media components minus the L-WRN conditioned media. The 485176-168-R4-J1-PDC was cultured in PANC media, which includes all 6C/Colon 1B media plus 100 ng/mL human FGF-10 (PeproTech, cat. 100-26), 500 nM SB-431542 (Selleckchem, cat. S1067), and 10 nM gastrin (Tocris Bioscience, cat. 3006). […]

Nc1ccn(C2OC(CO)C(O)C2(F)F)c(=O)n1 (centres undefined) + C=CC(=O)N1CCN(c2nc(OCC3CCCN3C)nc3c(F)c(-c4nc(N)cc(C)c4C(F)(F)F)c(Cl)cc23)C(C)C1
active: viability, T/C (second compound 0.00316 µM, first compound 0.0316 µM) 4.51% | viability, T/C (second compound 0.00316 µM, first compound 0.1 µM) 3.58% | viability, T/C (second compound 0.00316 µM, first compound 0.316 µM) 3.88% | viability, T/C (second compound 0.00316 µM, first compound 1 µM) 4.22% | viability, T/C (second compound 0.01 µM, first compound 0.01 µM) 7.13% | viability, T/C (second compound 0.01 µM, first compound 0.0316 µM) 4.46% | viability, T/C (second compound 0.01 µM, first compound 0.1 µM) 3.64% | viability, T/C (second compound 0.01 µM, first compound 0.316 µM) 3.98% | viability, T/C (second compound 0.01 µM, first compound 1 µM) 4.49% | viability, T/C (second compound 0.0316 µM, first compound 0.0316 µM) 4.71% | viability, T/C (second compound 0.0316 µM, first compound 0.1 µM) 4.6% | viability, T/C (second compound 0.0316 µM, first compound 0.316 µM) 4.09% | viability, T/C (second compound 0.0316 µM, first compound 1 µM) 3.59% | viability, T/C (second compound 0.1 µM, first compound 0.0316 µM) 3.96% | viability, T/C (second compound 0.1 µM, first compound 0.1 µM) 3.63% | viability, T/C (second compound 0.1 µM, first compound 0.316 µM) 4.57% | viability, T/C (second compound 0.1 µM, first compound 1 µM) 3.1% | viability, T/C (second compound 0.316 µM, first compound 0.0316 µM) 5.61% | viability, T/C (second compound 0.316 µM, first compound 0.1 µM) 4.79% | viability, T/C (second compound 0.316 µM, first compound 0.316 µM) 5.44% | viability, T/C (second compound 0.316 µM, first compound 1 µM) 3.53% | viability, T/C (second compound 1 µM, first compound 0.01 µM) 6.83% | viability, T/C (second compound 1 µM, first compound 0.0316 µM) 4.34% | viability, T/C (second compound 1 µM, first compound 0.1 µM) 3.74% | viability, T/C (second compound 1 µM, first compound 0.316 µM) 4.68% | viability, T/C (second compound 1 µM, first compound 1 µM) 3.28%
4 nM: IC50 (second compound 0.01 µM)
4.79 nM: IC50 (second compound 0.00316 µM)
3.32 nM: IC50 (second compound 1 µM)
3.57 nM: IC50 (second compound 0.1 µM)
3.88 nM: IC50 (second compound 0.316 µM)
inactive: viability, T/C (second compound 0.00316 µM, first compound 0.00316 µM) 71.5% | viability, T/C (second compound 0.00316 µM, first compound 0.01 µM) 11.7% | viability, T/C (second compound 0.01 µM, first compound 0.00316 µM) 61% | viability, T/C (second compound 0.0316 µM, first compound 0.00316 µM) 57.3% | viability, T/C (second compound 0.0316 µM, first compound 0.01 µM) 11.7% | viability, T/C (second compound 0.1 µM, first compound 0.00316 µM) 54.7% | viability, T/C (second compound 0.1 µM, first compound 0.01 µM) 10.5% | viability, T/C (second compound 0.316 µM, first compound 0.00316 µM) 58.8% | viability, T/C (second compound 0.316 µM, first compound 0.01 µM) 9.95% | viability, T/C (second compound 1 µM, first compound 0.00316 µM) 51.9%
3.8 nM: IC50 (second compound 0.0316 µM)

CC(C)n1nc(-c2ccc3oc(N)nc3c2)c2c(N)ncnc21 + CCn1c(-c2cccnc2C(C)OC)c2c3cc(ccc31)N1CCOC(CC(NC(=O)C(C(C)C)N(C)C(=O)C3(F)CCN(C(=O)C#CC(C)(C)N(C)C)CC3)C(=O)N3CCCC(N3)C(=O)OCC(C)(C)C2)C1
11.8 nM: IC50 (second compound 0.003 µM)
inactive: viability, T/C (second compound 0.000949 µM, first compound 0.000316 µM) 118% | viability, T/C (second compound 0.000949 µM, first compound 0.001 µM) 107% | viability, T/C (second compound 0.000949 µM, first compound 0.00316 µM) 64.2% | viability, T/C (second compound 0.000949 µM, first compound 0.01 µM) 74.7% | viability, T/C (second compound 0.000949 µM, first compound 0.0316 µM) 55.6% | viability, T/C (second compound 0.000949 µM, first compound 0.1 µM) 30.6% | viability, T/C (second compound 0.003 µM, first compound 0.000316 µM) 105% | viability, T/C (second compound 0.003 µM, first compound 0.001 µM) 81% | viability, T/C (second compound 0.003 µM, first compound 0.00316 µM) 58.8% | viability, T/C (second compound 0.003 µM, first compound 0.01 µM) 56.3% | viability, T/C (second compound 0.003 µM, first compound 0.0316 µM) 45.7% | viability, T/C (second compound 0.003 µM, first compound 0.1 µM) 25.4% | viability, T/C (second compound 0.00949 µM, first compound 0.000316 µM) 94.9% | viability, T/C (second compound 0.00949 µM, first compound 0.001 µM) 64% | viability, T/C (second compound 0.00949 µM, first compound 0.00316 µM) 65.3% | viability, T/C (second compound 0.00949 µM, first compound 0.01 µM) 53.4% | viability, T/C (second compound 0.00949 µM, first compound 0.0316 µM) 44.5% | viability, T/C (second compound 0.00949 µM, first compound 0.1 µM) 26.1% | viability, T/C (second compound 0.03 µM, first compound 0.000316 µM) 80.7% | viability, T/C (second compound 0.03 µM, first compound 0.001 µM) 75.6% | viability, T/C (second compound 0.03 µM, first compound 0.00316 µM) 71.1% | viability, T/C (second compound 0.03 µM, first compound 0.01 µM) 67.7% | viability, T/C (second compound 0.03 µM, first compound 0.0316 µM) 30.1% | viability, T/C (second compound 0.03 µM, first compound 0.1 µM) 30.6% | viability, T/C (second compound 0.0949 µM, first compound 0.000316 µM) 85.7% | viability, T/C (second compound 0.0949 µM, first compound 0.001 µM) 67.8% | viability, T/C (second compound 0.0949 µM, first compound 0.00316 µM) 61% | viability, T/C (second compound 0.0949 µM, first compound 0.01 µM) 52.2% | viability, T/C (second compound 0.0949 µM, first compound 0.0316 µM) 25.6% | viability, T/C (second compound 0.0949 µM, first compound 0.1 µM) 30% | viability, T/C (second compound 0.3 µM, first compound 0.000316 µM) 75.7% | viability, T/C (second compound 0.3 µM, first compound 0.001 µM) 77.8% | viability, T/C (second compound 0.3 µM, first compound 0.00316 µM) 59.8% | viability, T/C (second compound 0.3 µM, first compound 0.01 µM) 45.3% | viability, T/C (second compound 0.3 µM, first compound 0.0316 µM) 32.2% | viability, T/C (second compound 0.3 µM, first compound 0.1 µM) 30.6%
6.72 nM: IC50 (second compound 0.3 µM)
31.6 nM: IC50 (second compound 0.000949 µM)
10.9 nM: IC50 (second compound 0.00949 µM)
7 nM: IC50 (second compound 0.0949 µM)
17.3 nM: IC50 (second compound 0.03 µM)
